Measured values: patent US7122533B2, “Cosalane compounds and methods for their use” (The United States of America as represented by the …, priority 1999, dated 2006)
pIC50: −log10 of the molar value. Where two headings read alike, the source gives them in different places.

How the values were obtained:
Assay type in all cases: cell-based
[1] = tested on: human monocytes (RANTES-induced migration); assay: RANTES-induced monocyte migration (micro-chemotaxis chamber); details: for IC50: Homo sapiens, Monocyte, ≦ 5% standard error, NA = not active; for activity as inhibitors of RANTES-induced migration: discussion of Table 1
Procedure: (§1) Human embryonic kidney cells 293 (HEK-293) transfected to express human CCR1, CCR3, or CCR5 receptors were cultured in Dulbecco's Modified Eagles Medium (DMEM, Biowhiftaker, Walkersville, Md.) containing 10% Fetal Bovine Serum (FBS, Hyclone, Logan, Utah), 2 mM glutamine and 100 U/ml penicillin and streptomycin (Quality Biologicals, Gaithersburg, Md.). Peripheral blood mononuclear cells were isolated from fresh normal donor apheresis packs by centrifugation over Ficoll. Monocytes were enriched by 85–95% using percoll fractionation (Pharmacia, Piscataway, N.J.).
(§2) Monocyte chemotaxis was performed as previously described [Wang (1993) J. Immunol. 150:3022–3029]. Briefly, monocytes were resuspended in binding media (RPMI-1640 media containing 1% BSA, 25 mM HEPES, pH 8.0) at 1–2×10^6 cells/ml. Chemokines, diluted in binding media, were mixed with cosalane or the indicated cosalane analog and placed in the lower wells of a micro-chemotaxis chamber (Neuro Probe, Cabin John, Md.). Five micrometer polyvinyl-free polycarbonate membranes were placed over the chemokine mixtures. After the micro-chemotaxis chamber was assembled, 50 μl of cells were placed in the upper wells. The filled chemotaxis chambers were incubated in a humidified CO2 incubator for 90 minutes.
(§3) After incubating, the membranes were removed from the chemotaxis chamber assembly followed by gently removing the cells from the upper side of the membrane. Then cells on the lower side of the membrane were stained.
(§4) The number of cells migrating to the chemokine mixtures was determined for binding media alone, and chemokine treated and untreated cells. HEK-293 cells transfected to express human CCR1, CCR3 or CCR5 receptors were resuspended in binding media at 7.5×10^5 cells/ml. Ten μm polyvinyl-free polycarbonate membranes (Neuro Probe) were treated with 47 ug/ml rat tail collagen type 1 (Collaborative Biomedical Products, Bedford, Md.) in RPMI-1640 overnight, dried and placed over the chemoattractants. The assembled chemotaxis chambers were incubated in a humidified CO2 incubator for 5.5–6 hours. After the incubation, the membranes were removed from the chemotaxis chamber assembly followed by gently removing cells from the upper side of the membrane. The stained and dried membrane was mounted and the cells on the underside of the membrane were counted at 200× magnification. The results are reported as the average number of cells per high powered field at a given chemokine concentration±standard deviation.

[2] = target: T1, human CCR1 (Homo sapiens, UniProt P32246); assay: RANTES-induced CCR1/HEK-293 transfectant migration; details: for IC50: ≦ 5% standard error, NA = not active, read-out: IC50 (μM) RANTES-Induced CCRI/HEK Migration
T1 construct: expressed in transfected cells; host or cells: HEK-293
T1 sequence (P32246 1-355): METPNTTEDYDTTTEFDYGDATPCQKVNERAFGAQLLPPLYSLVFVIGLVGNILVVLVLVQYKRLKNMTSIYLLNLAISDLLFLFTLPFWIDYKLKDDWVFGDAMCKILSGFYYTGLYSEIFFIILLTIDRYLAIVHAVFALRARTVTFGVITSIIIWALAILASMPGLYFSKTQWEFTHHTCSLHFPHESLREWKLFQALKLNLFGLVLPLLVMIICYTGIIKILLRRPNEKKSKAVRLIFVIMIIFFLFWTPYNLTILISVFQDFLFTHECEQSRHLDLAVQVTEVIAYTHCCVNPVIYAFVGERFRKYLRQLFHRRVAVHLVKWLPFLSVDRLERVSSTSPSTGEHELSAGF
Procedure: Human embryonic kidney cells 293 (HEK-293) transfected to express human CCR1, CCR3, or CCR5 receptors were cultured in Dulbecco's Modified Eagles Medium (DMEM, Biowhiftaker, Walkersville, Md.) containing 10% Fetal Bovine Serum (FBS, Hyclone, Logan, Utah), 2 mM glutamine and 100 U/ml penicillin and streptomycin (Quality Biologicals, Gaithersburg, Md.). Peripheral blood mononuclear cells were isolated from fresh normal donor apheresis packs by centrifugation over Ficoll.
as §4, with “magnification.” for “magnification. The results are reported as the average number of cells per high powered field at a given chemokine concentration±standard deviation.”

[3] = target: T1, human CCR1; assay: MIP1α-induced migration of CCR1 transfectants; details: compound at 1 μM, data not shown
Procedure: as §1, §4
(§5) The ability of compound 3 to inhibit RANTES-induced migration of human embryonic kidney (HEK) cells transfected to express individual chemokine receptors was initially tested. Although the cosalane analog 3 (1 μM) had no effect on RANTES-induced migration of CCR5 transfectants, it inhibited 50% of RANTES-induced CCR1 transfectant migration (FIG. 2). In contrast, the MIP1α- and MIP1β-induced migration of CCR1 transfectants was not inhibited by compounds 1, 2 or 3 when tested at concentrations of 1 μM (data not shown).

[4] = target: T1, human CCR1; assay: MIP1β-induced migration of CCR1 transfectants; details: compound at 1 μM, data not shown
Procedure: as §1, §4, §5

[5] = tested on: MCP-4/CCR2-mediated monocyte migration; assay: MCP-4-induced human monocyte migration; details: FIG. 3
Procedure: as §2, §3, §4
Although MCP-4 is known to bind to CCR2 and CCR3, fresh primary human monocytes only express high levels of CCR2.

[6] = target: T2, human CCR3 (Homo sapiens, UniProt P51677); assay: eotaxin-induced CCR3/HEK-293 cell migration; details: eotaxin-induced CCR3/HEK-293 migration, figures
T2 construct: expressed in transfected cells; host or cells: HEK-293
T2 sequence (P51677 1-355): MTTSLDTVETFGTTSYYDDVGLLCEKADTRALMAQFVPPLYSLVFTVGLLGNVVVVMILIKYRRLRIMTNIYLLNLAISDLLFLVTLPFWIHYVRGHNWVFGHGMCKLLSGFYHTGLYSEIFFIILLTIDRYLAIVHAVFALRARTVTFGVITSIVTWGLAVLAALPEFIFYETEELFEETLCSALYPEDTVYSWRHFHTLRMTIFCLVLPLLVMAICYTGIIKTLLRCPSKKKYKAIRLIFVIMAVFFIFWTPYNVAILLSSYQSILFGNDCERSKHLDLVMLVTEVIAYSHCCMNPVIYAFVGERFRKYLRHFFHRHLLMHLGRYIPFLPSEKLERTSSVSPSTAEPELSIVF
Procedure: as §1, §4

[7] = tested on: human monocytes (acetylated RANTES-induced migration); assay: monocyte migration induced by acetylated (modified) RANTES; details: acetylated RANTES 50–1000 ng/mL, FIG. 6
Procedure: as §2, §3
as §4, with “deviation. […]” for “deviation.”

[8] = tested on: human monocytes (MIP1-α-induced migration); assay: MIP1-α-induced monocyte migration; details: compound at 1 μM, chemokine at 2.5 ng/ml, data not shown
Procedure: (§6) Monocyte chemotaxis was performed as previously described [Wang (1993) J. Immunol. 150:3022–3029]. Briefly, monocytes were resuspended in binding media (RPMI-1640 media containing 1% BSA, 25 mM HEPES, pH 8.0) at 1–2×10^6 cells/ml. […] Five micrometer polyvinyl-free polycarbonate membranes were placed over the chemokine mixtures. After the micro-chemotaxis chamber was assembled, 50 μl of cells were placed in the upper wells. The filled chemotaxis chambers were incubated in a humidified CO2 incubator for 90 minutes.
as §3
as §4, with “magnification.” for “magnification. The results are reported as the average number of cells per high powered field at a given chemokine concentration±standard deviation.”
(§7) It is noted that both MIP1-α and MIP1-β are ligands for CCR1, CCR5, and D6 (8).

[9] = tested on: human monocytes (MIP1-β-induced migration); assay: MIP1-β-induced monocyte migration; details: compound at 1 μM, chemokine at 2.5 ng/ml, data not shown
Procedure: as §6, §3
as §4, with “magnification.” for “magnification. The results are reported as the average number of cells per high powered field at a given chemokine concentration±standard deviation.”
as §7

SMILES	IC50 [1] [µM]	IC50 [2] [µM]	inhibition of CCL11 (eotaxin) interaction with CCR3 [6]	activity as inhibitors of RANTES-induced migration [1]	other results
CC(C)CCC[C@@H](C)[C@H]1CC[C@H]2[C@@H]3CC[C@H]4C[C@@H](CCC=C(c5cc(Cl)c(O)c(C(=O)O)c5)c5cc(Cl)c(O)c(C(=O)O)c5)CC[C@]4(C)[C@H]3CC[C@]12C [Compound 1, cosalane]	0.76	0.26	inhibit	–	inhibition of MIP1α-induced migration of CCR1 transfectants [3]: not inhibited; inhibition of MIP1β-induced migration of CCR1 transfectants [4]: not inhibited; block of MCP-4/CCR2-mediated monocyte migration [5]: block; inhibition of the activity of modified (acetylated) RANTES to attract monocytes ([7]; 30 μM compound): not inhibited
CC(C)CCCC(C)[C@H]1CCC2C3CCC4C[C@@H](CCC=C(c5cc(Cl)c(OCc6cccc(C(=O)O)c6)c(C(=O)O)c5)c5cc(Cl)c(OCc6cccc(C(=O)O)c6)c(C(=O)O)c5)CC[C@]4(C)C3CC[C@@]21C (stereo partly drawn) [Compound 2]	10	10	inhibit	retain activity	inhibition of MIP1-α-induced monocyte migration [8]: not reduced; inhibition of MIP1-β-induced monocyte migration [9]: very weak inhibitor; reduction in cell numbers, MIP1-β-induced monocyte migration [9]: less than 10%; inhibition of MIP1α-induced migration of CCR1 transfectants [3]: not inhibited; inhibition of MIP1β-induced migration of CCR1 transfectants [4]: not inhibited; block of MCP-4/CCR2-mediated monocyte migration [5]: block
CC(C)CCCC(C)C1CCC2C3CCC4CC(CCC=C(c5cc(Cl)c(OCc6ccc(C(=O)O)cc6)c(C(=O)O)c5)c5cc(Cl)c(OCc6ccc(C(=O)O)cc6)c(C(=O)O)c5)CCC4(C)C3CCC12C (stereo not drawn) [Compound 5]	–	–	–	inactive	inhibition of MIP1-α-induced monocyte migration [8]: neither MiP1-α- nor MIP1-β-induced monocyte migration was inhibited; inhibition of MIP1-β-induced monocyte migration [9]: neither MiP1-α- nor MIP1-β-induced monocyte migration was inhibited; inhibition of the activity of modified (acetylated) RANTES to attract monocytes ([7]; 10 μM compound): no statistical difference
CC(C)CCCC(C)[C@H]1CCC2C3CCC4C[C@@H](CCC=C(c5cc(Cl)c(OCc6ccc(-c7cccc(C(=O)O)c7)cc6)c(C(=O)O)c5)c5cc(Cl)c(OCc6ccc(-c7cccc(C(=O)O)c7)cc6)c(C(=O)O)c5)CC[C@]4(C)C3CC[C@@]21C (stereo partly drawn) [Compound 6]	3	9.1	–	retain activity	–
CC(C)CCCC(C)[C@H]1CCC2C3CCC4C[C@@H](CCC=C(c5cc(Cl)c(OCc6cccc([N+](=O)[O-])c6)c(C(=O)O)c5)c5cc(Cl)c(OCc6cccc([N+](=O)[O-])c6)c(C(=O)O)c5)CC[C@]4(C)C3CC[C@@]21C (stereo partly drawn) [Compound 7]	3.5	–	–	retain activity	pIC50 [2]: 5.24
CC(C)CCCC(C)[C@H]1CCC2C3CCC4C[C@@H](CCC=C(c5cc(Cl)c(OCc6cccc(B(O)O)c6)c(C(=O)O)c5)c5cc(Cl)c(OCc6cccc(B(O)O)c6)c(C(=O)O)c5)CC[C@]4(C)C3CC[C@@]21C (stereo partly drawn) [Compound 9]	2.2	4	inhibit	–	–
CC(C)CCCC(C)[C@H]1CCC2C3CCC4C[C@@H](CCC=C(c5cc(Cl)c(O)c(C(=O)NCC(=O)O)c5)c5cc(Cl)c(O)c(C(=O)NCC(=O)O)c5)CC[C@]4(C)C3CC[C@@]21C (stereo partly drawn) [Compound 12]	–	–	–	–	pIC50 [2]: 5.00
CSCC[C@H](NC(=O)c1cc(C(=CCC[C@H]2CC[C@@]3(C)C(CCC4C3CC[C@@]3(C)C4CC[C@@H]3C(C)CCCC(C)C)C2)c2cc(Cl)c(O)c(C(=O)N[C@@H](CCSC)C(=O)O)c2)cc(Cl)c1O)C(=O)O (stereo partly drawn) [Compound 15]	0.82	–	–	retained activity	–
